Holding throughout (test): NCI anticancer screen, dose series, 48 h
The subject of assay [1] is A549.
For assay [2], the system named is UO-31.
Assay [3] concerns UACC-62.
Assay [4] relates to Hs-578T.
The subject of assay [5] is PC-3.
For assay [6], the system named is NCI-H522.
Assay [7] relates to M14.
In assay [8] the test system is DU-145.
In assay [9] the test system is EKVX.
Assay [10] concerns HCC 2998.
Assay [11] relates to ACHN.
Assay [12] has as its system OVCAR-3.
For assay [13], the system named is T47D.
For assay [14], the system named is U-251.
Assay [15] relates to CAKI-1.
Assay [16] relates to NCI/ADR-RES.
For assay [17], the system named is SK-MEL-2.
Assay [18] deals with HCT-116.
For assay [19], the system named is TK-10.
Assay [20] concerns 786-0.

The source of these data is ChEMBL document CHEMBL1201862, “PubChem BioAssay data set” (2004).

Structures are written as SMILES.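 Five compound concentrations were applied to cells in 96-well plates for 48 hours; endpoints were derived by simple linear interpolation of the resulting dose-response curve. GI50: concentration for 50% inhibition of growth.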 Active and inactive are the calls of the source. Cut-off read from the data, not from the text of the source: active = GI50 up to about 1.1 µM and inactive = higher.

Regarding `CC(C)(C)OC(=O)NCCCCC1NC(=O)[C@@H]2Cc3c([nH]c4ccccc34)C(c3ccccc3)N2C1=O` (stereo not given in full), the GI50 in [1] was 38.4 µM (inactive); in [2], 10.7 µM (inactive); in [3] it was 23.4 µM (inactive); in [4], 12.1 µM (inactive); in assay [5] it was 33.8 µM (inactive); in [6], 23 µM (inactive). Also, the GI50 in [7] is 28.6 µM (inactive); in [8], 49.2 µM (inactive); in assay [9], 44.9 µM (inactive); in assay [10] it was 12.8 µM (inactive); in [11], 43.8 µM (inactive); in assay [12] it was 19 µM (inactive). The GI50 in assay [13] is 18 µM (inactive); in assay [14] it was 35.1 µM (inactive); in assay [15] it was 50.5 µM (inactive); in [16], 35.1 µM (inactive); in [17], 24.7 µM (inactive); in [18], 29.7 µM (inactive). Besides, the GI50 in [19] was 35.2 µM (inactive); in [20], 25.1 µM (inactive).

As for `O=C(/C=C/c1ccc2ccccc2c1)NCc1ccc(C(=O)NCc2ccccc2)cc1`, the GI50 was 65.5 µM (inactive) in assay [1]; > 53.8 µM (inactive) in [2]; 97.9 µM (inactive) in assay [3]; 37.9 µM (inactive) in assay [4]; > 100 µM (inactive) in [5]; > 56.8 µM (inactive) in assay [6]. The GI50 in assay [7] was > 100 µM (inactive); in [8], > 100 µM (inactive); in [9] it was > 100 µM (inactive); in [10], > 37.2 µM (inactive); in [11] it was > 68.7 µM (inactive); in [12], > 80.5 µM (inactive). The GI50 in assay [13] is > 36.3 µM (inactive); in assay [14], > 60 µM (inactive); in assay [15] it was 28.3 µM (inactive); in [16], > 100 µM (inactive); in assay [17], > 100 µM (inactive); in assay [18], > 100 µM (inactive). The GI50 in assay [19] was > 100 µM (inactive); in assay [20], 67.9 µM (inactive).

In the case of `O=C1c2scc(-c3ccc(F)cc3)c2-n2cccc21`, the GI50 in assay [1] was 56.5 µM (inactive); in [2], 8.99 µM (inactive); in assay [3] it was 18.6 µM (inactive); in assay [4], 20.3 µM (inactive); in assay [5] it was 29.9 µM (inactive); in assay [6], 17.3 µM (inactive). The GI50 in [7] is 29.5 µM (inactive); in assay [8], 88.1 µM (inactive); in [9] it was 24.4 µM (inactive); in assay [10] it was 23.5 µM (inactive); in [11], 39.7 µM (inactive); in [12], 54.1 µM (inactive). Also, the GI50 in assay [13] is 13.6 µM (inactive); in [14], 15.7 µM (inactive); in assay [15], 10.3 µM (inactive); in assay [16] it was 33 µM (inactive); in [17] it was 35.2 µM (inactive); in assay [18] it was 18.2 µM (inactive). Further, the GI50 was 45.3 µM (inactive) in assay [19] and 15.7 µM (inactive) in assay [20].

For `Oc1ccc(-c2nc(-c3cccnc3)c(-c3ccc(Cl)cc3)[nH]2)cc1O`, the GI50 in assay [1] was 20.1 µM (inactive); in assay [2] it was 12.8 µM (inactive); in assay [3], 11.2 µM (inactive); in assay [4], 12.2 µM (inactive); in assay [5], 9.2 µM (inactive); in assay [6], 1.13 µM (inactive). Further, the GI50 in [7] was 13.6 µM (inactive); in assay [8], 22 µM (inactive); in assay [9], 18 µM (inactive); in assay [10], 13.7 µM (inactive); in assay [11], 9.95 µM (inactive); in [12], 3.43 µM (inactive). Further, the GI50 was 11.4 µM (inactive) in [13]; 11 µM (inactive) in assay [14]; 15.1 µM (inactive) in assay [15]; 14.1 µM (inactive) in [16]; 17.8 µM (inactive) in assay [17]; 11.7 µM (inactive) in assay [18]. Besides, the GI50 in assay [19] is 10.4 µM (inactive); in assay [20], 12 µM (inactive).

`COc1ccc(N(CN2C(=O)CCC2C(=O)O)C(C)=O)cc1` (stereo not given): the GI50 in [1], in assay [2], in assay [3], in assay [4], in assay [5] and in assay [6] was > 100 µM (inactive) each time. In addition, the GI50 in assay [7], in assay [8], in [9], in [10], in assay [11] and in assay [12] was > 100 µM (inactive) each time. In addition, the GI50 in [13], in assay [14], in assay [15], in assay [16], in [17] and in [18] was > 100 µM (inactive) in each case. Besides, the GI50 in assay [19] and in [20] was > 100 µM (inactive) each time.

Take `COC(=O)C1=C(OC(=O)c2ccccc2)C(C(=O)OC)[C@@]2(O)[C@@H](C(=O)OC)[C@H](C)C[C@@H]1[C@@H]2C(=O)OC` (stereo not given in full): the GI50 is 19.5 µM (inactive) in assay [1]; 29.5 µM (inactive) in assay [2]; 39.7 µM (inactive) in [3]; 34.5 µM (inactive) in assay [4]; 37.2 µM (inactive) in assay [5]; 13.2 µM (inactive) in assay [6]. Besides, the GI50 in assay [7] is 28.3 µM (inactive); in [8], 59.3 µM (inactive); in assay [9], 31.6 µM (inactive); in assay [10], 25 µM (inactive); in assay [11] it was 31.6 µM (inactive); in assay [12], 46.2 µM (inactive). Further, the GI50 in assay [13] was 28 µM (inactive); in [14] it was 35.4 µM (inactive); in [15], 42.2 µM (inactive); in assay [16] it was 19 µM (inactive); in assay [17], 58.2 µM (inactive); in assay [18], 36 µM (inactive). Further, the figures for the GI50 in [19] and in assay [20] were 75.9 µM (inactive) and 38.1 µM (inactive), respectively.

For `CCOC(=O)C(C)NC(=O)C(C)NC(=O)C(C)NC(=O)C(C)NC(=O)C(C)NC(=O)OCc1ccccc1` (stereo not given), the GI50 in [1], in assay [2], in [3], in assay [4], in assay [5] and in [6] was > 100 µM (inactive) each time. Further, the GI50 in assay [7], in assay [8], in assay [9], in assay [10], in assay [11] and in [12] was > 100 µM (inactive) in each case. Moreover, the GI50 in assay [13], in assay [14], in [15], in [16], in [17] and in assay [18] was > 100 µM (inactive) throughout. Besides, the GI50 in assay [19] and in assay [20] was > 100 µM (inactive) each time.

In the case of `COc1ccc(/C=N/n2c(Cc3ccccc3)n[nH]c2=O)c(OC)c1`, the GI50 is > 39.5 µM (inactive) in assay [1]; > 42.8 µM (inactive) in assay [2]; > 88.3 µM (inactive) in assay [3]; 11.2 µM (inactive) in [4]; > 100 µM (inactive) in assay [5]; > 52 µM (inactive) in assay [6]. For the same molecule, the GI50 in [7] was 51.8 µM (inactive); in assay [8], > 100 µM (inactive); in assay [9] it was > 57.9 µM (inactive); in [10], > 77.4 µM (inactive); in assay [11] it was 30.4 µM (inactive); in assay [12], > 63.5 µM (inactive). The GI50 is > 100 µM (inactive) in [13]; 22 µM (inactive) in assay [14]; > 51.4 µM (inactive) in [15]; 21.5 µM (inactive) in [16]; > 59.8 µM (inactive) in assay [17]; 26.2 µM (inactive) in assay [18]. The GI50 in [19] was 27.3 µM (inactive); in assay [20], 31 µM (inactive).

In the case of `NC(=S)NN=C1Cc2ccccc2C1`, the GI50 in assay [1], in assay [2], in assay [3], in assay [4], in assay [5] and in [6] was > 100 µM (inactive) in each case. The GI50 is > 100 µM (inactive) in assay [7]; > 100 µM (inactive) in assay [8]; 42.3 µM (inactive) in assay [9]; > 100 µM (inactive) in assay [10]; > 100 µM (inactive) in assay [11]; > 100 µM (inactive) in assay [12]. Further, the GI50 in [13], in assay [14], in [15], in [16], in assay [17] and in assay [18] was > 100 µM (inactive) each time. For the same molecule, the GI50 in assay [19] and in assay [20] was > 100 µM (inactive) throughout.

`CCN(CC)C(=S)SNCc1ccc(S(N)(=O)=O)cc1`: the GI50 was 12.3 µM (inactive) in assay [1]; 13.1 µM (inactive) in [2]; 24.9 µM (inactive) in assay [3]; 19.8 µM (inactive) in assay [4]; 13.1 µM (inactive) in assay [5]; 0.0191 µM (active) in [6]. For the same molecule, the GI50 is 10.7 µM (inactive) in assay [7]; 15.5 µM (inactive) in [8]; 20.9 µM (inactive) in assay [9]; 36 µM (inactive) in assay [10]; 15.3 µM (inactive) in assay [11]; 14.4 µM (inactive) in assay [12]. For the same molecule, the GI50 in [13] is 16.4 µM (inactive); in [14], 11.2 µM (inactive); in assay [15], 14.7 µM (inactive); in assay [16] it was 18.9 µM (inactive); in [17], 16.6 µM (inactive); in assay [18] it was 13.2 µM (inactive). In addition, the GI50 is 25 µM (inactive) in assay [19] and 14.3 µM (inactive) in [20].
